Results on two compounds are retold here after PMC4104029, “Mechanism of Action of Compound-13: An α1-Selective Small Molecule Activator of AMPK” (Chemistry & Biology, 2014).

The test system of one assay is human AMPK. On the set-up: method as in Gómez-Galeno et al., 2010. As to conditions: isoform combination not specified; ref Gómez-Galeno et al., 2010; read-out: half-maximal effective concentration (EC50); cited from earlier work.
For the next assay, the target named is Yeast acetate CoA ligase. As to the kind of experiment: Acetate CoA ligase assay. The following applies: 0–100 μM. It counts as biochemical. From the text: (Needleman and Wunsch, 1970) and edited using ESPript (Gouet, et al., 2003). Secondary structure was derived from PDBID 2Y94. The phosphotransferase domain is shaded green (T-loop phosphorylation site is indicated with a star), the autoinhibitory domain in blue and the C-terminal domain in yellow. Regulatory elements in the α-linker are also indicated: α-hook in pink and α-RIMs in orange. Black lines indicate the position of the epitopes recognised by α-subunit specific antibodies used in this study. (B) COS-1 cells were seeded into 6-well plates and transiently transfected with pCMV-AMPKβ1, pCMV-AMPKγ1 and either pCMV-FLAG-AMPKα2 WT or pCMV-FLAG-AMPKα2/α1 LOOP chimera using FuGENE HD.
After 24 h cells were treated with the indicated compounds for 1 h and kinase activity determined in anti-FLAG immunoprecipitates under standard conditions. […]
Mouse hepatocytes were incubated with the indicated compounds in the absence (Resting) or presence of 10 mU/ml insulin for 60 min. Lysates were analysed by Western blotting using the indicated antibodies. […]
Yeast acetate CoA ligase (Sigma) was assayed in reactions containing 50 mM TES pH 7.4, 0.1 mM EDTA, 5 mM MgCl2, 4 mM ATP, 0.2 mM coenzyme A, 5 mM DTT and increasing concentrations of C2 and C13 (0 – 100 μM). The formation of pyrophosphate (PPi) was monitored by reduction of PPi-molybdate complexes as described in Methods. […]

On to `O=P(O)(O)c1ccc(-c2cc(O)on2)o1` [Compound C2, 5-(5-hydroxyl-isoxazol-3-yl)-furan-2-phosphonic acid], for which the EC50 in the assay with human AMPK is 0.0063 µM.
In the case of `CC(C)C(=O)OCOP(=O)(OCOC(=O)C(C)C)c1ccc(C2=NOC(=O)C2)o1` [Compound C13], on Yeast acetate CoA ligase, half-maximal inhibition (IC50) was put at 33 ± 2.2 µM.
